Data reported in patent EP2646421B1, “7-NITRO-5-PHENYL-1-(PYRROLIDIN-1-YLMETHYL)-1H-BENZO[E][1,4]DIAZEPIN-2(3H)-ONE AND OTHER BENZODIAZEPINE DERIVATIVES” (Pignataro, Giuseppe, priority 2010, dated 2012).

What was measured:
Type in all cases: cell-based
NCX1 [1] = target: T1, NCX1 (Canis lupus familiaris, UniProt P23685); assay: 45Ca2+ radiotracer fluxes (efflux/influx) in BHK-NCX1 cells
T1 construct: expressed in transfected cells
Method: (§1) The activity of NCX was established by means of three different subclones of baby hamsted kidney (BHK) cells that were stably transfected with one of each NCX isoforms, named BHK-NCX1, BHK-NCX2 and BHK-NCX3. These cell lines were grown on plastic dishes in a mix of DMEM and Ham's F12 media (1:1) (Gibco, Invitrogen, MI, Italy) supplemented with 5% fetal bovine serum, 100 U/ml penicillin, and 100 µg/ml streptomycin (Sigma, St. Louis, Missouri, USA). Cells were cultured in a humidified 5% CO2 atmosphere and at the temperature of 37°C.
(§2) The activity of the Na^+/Ca^2+ exchanger was measured by means of ^45Ca^2+ radiotracer variations in the cytoplasm of cells exposed to a protocol stimulating the forward or the reverse mode of the antiporter. The BHK cells expressing each mutated or non-mutated NCX isoform were cultured in 12-well dishes and incubated in 145 mM NaCl for 10 minutes and then in a medium containing only 145 mM N-Methyl D-glucamine (NMDG) and 10 µM of ^45Ca^2+. This rapid substitution of the medium from a high level of Na^+ to another one without Na^+ allow the ^45Ca^2+ influx (reverse mode). Before the medium substitution cells was incubated with 1 mM ouabain, a Na^+/K^+ pump inhibitor, and 10 µM monensin, a ionophore for extracellular Na^+. After 30 seconds incubation, cells were washed with an ice-cold solution containing 2 mM La^3+ to stop ^45Ca^2+ uptake. The medium was removed and cells were subsequently lysed with 0.1 N NaOH and aliquots were taken to determine radioactivity and protein content.
(§3) In order to measure NCX activity in the forward mode, cells were firstly loaded with ^45Ca^2+ and subsequently exposed to a chemical protocol to stimulate the efflux of the radiotracer in the extracellular medium. In particular, cells were loaded with ^45Ca^2+ by using a solution containing 1 µM ionomycin, 145 mM Na^+ and ^45Ca^2+. Next, cells were exposed to a Ca^2+-free solution containing 2 mM EGTA. One µM thapsigargin, a Ca^2+-ATPase inhibitor, was present in both solutions in order to prevent ^45Ca^2+ influx in intracellular organelles. After 60 second, cells were lysed with […] NaOH and aliquots were taken to determine cytoplasmatic radioactivity.
(§4) Cells were incubated for 30 minutes with different neurounina-1 concentrations.

NCX2 = target: T2, NCX2 (Rattus norvegicus, UniProt P48768); assay: 45Ca2+ radiotracer fluxes (efflux/influx) in BHK-NCX2 cells
T2 construct: expressed in transfected cells
T2 sequence (P48768 21-921): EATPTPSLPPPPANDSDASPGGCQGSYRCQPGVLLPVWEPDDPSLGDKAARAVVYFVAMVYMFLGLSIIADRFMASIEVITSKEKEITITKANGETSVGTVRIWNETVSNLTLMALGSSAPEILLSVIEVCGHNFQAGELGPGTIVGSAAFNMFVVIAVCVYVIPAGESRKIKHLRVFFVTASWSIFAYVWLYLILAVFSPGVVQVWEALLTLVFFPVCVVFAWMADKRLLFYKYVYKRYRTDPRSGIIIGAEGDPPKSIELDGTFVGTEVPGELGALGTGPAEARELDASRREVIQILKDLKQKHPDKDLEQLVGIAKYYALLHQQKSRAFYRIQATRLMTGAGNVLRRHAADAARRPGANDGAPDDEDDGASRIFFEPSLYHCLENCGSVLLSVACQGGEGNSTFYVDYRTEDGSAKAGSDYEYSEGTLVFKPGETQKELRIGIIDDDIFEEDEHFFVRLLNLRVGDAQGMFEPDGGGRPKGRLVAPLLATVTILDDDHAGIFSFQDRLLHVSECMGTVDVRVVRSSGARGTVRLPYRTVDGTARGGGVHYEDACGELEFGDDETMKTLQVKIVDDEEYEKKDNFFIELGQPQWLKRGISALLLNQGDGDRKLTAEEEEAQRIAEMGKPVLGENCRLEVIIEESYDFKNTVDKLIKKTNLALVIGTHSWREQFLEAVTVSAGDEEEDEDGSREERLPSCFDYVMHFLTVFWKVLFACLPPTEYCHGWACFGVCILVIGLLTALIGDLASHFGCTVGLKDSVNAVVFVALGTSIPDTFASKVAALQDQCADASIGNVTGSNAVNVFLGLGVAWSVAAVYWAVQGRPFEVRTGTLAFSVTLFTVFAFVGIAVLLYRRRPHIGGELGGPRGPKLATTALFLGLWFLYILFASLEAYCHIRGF
Method: as §1, §2, §3, §4

NCX1 [2] = target: T1, NCX1; assay: Fura-2 AM single-cell microfluorimetry, BHK-NCX1 cells; conditions: 10 nM (Fig. 2)
Method: as §1
NCX activity has been measured considering the variation of intracellular concentrations of Ca^2+ ions ([Ca^2+]i) due to its activation by means of single-cell microfluorimetry. […] In both cases, this probe will produce an emission at 510 nm; the ratio between the two emission relative to 340 and 380 excitation allow to quantify [Ca^2+]i in the time considering the calibration curve previously performed. […]
Briefly, BHK cells wild type and/or BHK trasnsfected with NCX mutants, grown on glass coverslips, were loaded with Fura-2 acetoxymethyl ester (Fura-2AM) (10 µM) for 30 minutes at 37°C in normal Krebs solution containing the following (in mM): 5.5 KCI, 160 NaCl, 1.2 MgCl2, 1.5 CaCl2, 10 glucose, and 10 Hepes-NaOH, pH 7.4. […] Fura-2 fluorescence intensity was measured every 3 seconds. […]

[3] = 45Ca2+ radiotracer, forward mode
[4] = 45Ca2+ radiotracer, reverse mode
[5] = forward and reverse mode, patch clamp, Fura-2 microfluorimetry and 45Ca2+ fluxes (summary)

T1 sequence (P23685 33-970): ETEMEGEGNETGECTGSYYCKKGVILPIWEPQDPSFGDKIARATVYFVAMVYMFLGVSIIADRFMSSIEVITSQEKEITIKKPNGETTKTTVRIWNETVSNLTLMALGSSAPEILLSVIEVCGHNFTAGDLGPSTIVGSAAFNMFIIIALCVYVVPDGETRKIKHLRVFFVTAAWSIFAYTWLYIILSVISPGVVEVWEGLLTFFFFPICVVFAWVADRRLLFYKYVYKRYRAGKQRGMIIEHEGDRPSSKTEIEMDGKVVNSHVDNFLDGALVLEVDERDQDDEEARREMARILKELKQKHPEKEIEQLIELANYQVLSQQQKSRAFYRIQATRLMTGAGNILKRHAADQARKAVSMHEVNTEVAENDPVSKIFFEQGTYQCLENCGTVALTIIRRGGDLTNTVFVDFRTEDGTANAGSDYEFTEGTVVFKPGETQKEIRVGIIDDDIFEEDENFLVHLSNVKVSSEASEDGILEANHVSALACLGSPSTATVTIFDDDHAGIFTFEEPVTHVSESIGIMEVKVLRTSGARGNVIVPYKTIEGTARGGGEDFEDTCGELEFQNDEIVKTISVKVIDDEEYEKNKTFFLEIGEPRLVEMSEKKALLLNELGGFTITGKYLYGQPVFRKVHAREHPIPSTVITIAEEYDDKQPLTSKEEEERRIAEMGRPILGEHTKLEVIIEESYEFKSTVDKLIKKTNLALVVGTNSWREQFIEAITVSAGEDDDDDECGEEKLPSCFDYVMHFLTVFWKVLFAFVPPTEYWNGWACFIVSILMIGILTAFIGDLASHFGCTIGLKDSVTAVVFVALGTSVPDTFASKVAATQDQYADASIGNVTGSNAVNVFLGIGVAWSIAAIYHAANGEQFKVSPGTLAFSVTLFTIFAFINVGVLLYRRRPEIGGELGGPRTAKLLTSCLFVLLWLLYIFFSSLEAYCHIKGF

O=C1CN=C(c2ccccc2)c2cc([N+](=O)[O-])ccc2N1CN1CCCC1 [neurounina-1, 7-nitro-5-phenyl-1-(pyrrolidin-1-ylmethyl)-1H-benzo[e][1,4]diazepin-2(3H)-one]
increase of forward mode of NCX1 activity (NCX1 [1]; [3]): 70%
increase of reverse mode NCX1 activity (NCX1 [1]; [4]): 40%
EC50 (NCX1 [1]; EC50 NCX1, reverse mode, 45Ca2+ radiotracer, reverse mode): 1.1 nM
EC50 (NCX1 [1]; EC50 for NCX1, forward mode, 45Ca2+ radiotracer, forward mode): 1.4 nM
EC50 (NCX1 [1]; EC50 su NCX1, from the functional assays (summary)): 1 to 2 nM
NCX1 activity (NCX1 [1]; [5]): increases, in a dose-dependent manner
increase of forward mode of NCX2 activity (NCX2; [3]): 30%
increase of reverse mode NCX2 activity (NCX2; [4]): 40%
EC50 (NCX2; EC50 NCX2, reverse mode, 45Ca2+ radiotracer, reverse mode): 2.7 nM
EC50 (NCX2; EC50 for NCX2, forward mode, 45Ca2+ radiotracer, forward mode): 1.7 nM
EC50 (NCX2; EC50 su NCX2, from the functional assays (summary)): 1 to 2 nM
NCX2 activity (NCX2; [5]): increases, in a dose-dependent manner
increased reverse mode activity of NCX1 (NCX1 [2]): 30%
